Measured values published in patent publication US20220096452A1, “LOCAL ANESTHETIC FOR THE TREATMENT OF NEUROLOGICAL SYMPTOMS RESULTING FROM BRAIN DYSFUNCTIONS” (ICM (INSTITUT DU CERVEAU ET DE LA MOELLE ÉPINIÈRE), priority 2019, published 2022).
“Also recorded” adds a separate entry of the source.

Columns and labels:
Type in all cases: in vivo, human
[1] = tested on: patient who suffered from almost complete cortical blindness following a bilateral occipital stroke; experiment: 18F-FDG PET-scan brain metabolism, on vs off periods
[2] = tested on: patient who suffered from almost complete cortical blindness following a bilateral occipital stroke; experiment: Resting state functional MRI connectivity, on vs off periods
Procedure: Resting state fMRI is a method of functional magnetic resonance imaging (fMRI) that is used in brain mapping to evaluate regional interactions that occur in a resting or task-negative state, when an explicit task is not being performed. We gathered MRI images while the patient was at rest with their eyes closed, during off and on periods. Those data were analyzed using the CONN toolbox (https://web.conn-toolbox.org/home). We report here two results providing pathophysiological correlates of vision recovery in the patient's right visual hemifield under Mepivacaine.
The left early visual cortex (or calcarine cortex) is the entry gate into the brain of visual information from the right hemifield. […] We predicted that whatever its underlying mechanism, functional recovery implies a restoration of functional communication between the left calcarine cortex and distant cortical areas.
We predicted that the restoration of vision should be accompanied with an overall increase of connectivity between the visual system and the rest of the brain. We computed for each voxel of the brain the average connectivity with the rest of the brain (or “intrinsic connectivity”), and studied the changes of this value between off and on periods.

[3] = tested on: patient who suffered from almost complete cortical blindness following a bilateral occipital stroke; experiment: Clinical assessment of vision (visual field by confrontation), on vs off periods
From the text: In 2010, a patient underwent surgery for the removal of a cervical herniated intervertebral disc (C6-C7). Immediately following surgery, they suffered from a dissection of their right vertebral artery, resulting in bilateral occipital and right cerebellar infarcts. They presented initially with almost complete cortical blindness, left hemiparesis, gait instability, mild swallowing difficulties. Visual perception improved in a small peripheral part of their right visual hemifield, while all other symptoms recovered fully.
The inverse phenomenon took place, over about 1 minute, during the transition from on to off periods.

[4] = tested on: patient who suffered from almost complete cortical blindness following a bilateral occipital stroke; experiment: General neurological examination; settings: either off or on Mepivacaine
From the text: Apart from the patient's visual status, […] general neurological examination was normal, either off or on Mepivacaine. They had no sensory or motor impairment, no abnormalities of the cranial nerves, no cognitive deficit (MMSE=29/30, FAB 16/18, Five Words Test 10/10). There was no psychiatric symptoms, except for a depressive mood whenever the patient was off medication and virtually blind.

[5] = tested on: patient who suffered from almost complete cortical blindness following a bilateral occipital stroke; experiment: Neurovisual evaluation (BORB and other tests) during on periods
From the text: As shown in the table below, during on periods, all tests involving visual perception were normal, except for a mild deficit in the Facial recognition test, with no discernible impairment of face perception in everyday life.

[6] = tested on: patient who suffered from almost complete cortical blindness following a bilateral occipital stroke; experiment: Visual field assessment, full-threshold Humphrey visual field (HVF), 24-2 SITA
From the text: Those clinical observations were supported and refined by assessment of the visual field with the full-threshold Humphrey visual field (HVF), 24-2 Swedish Interactive Thresholding Algorithm (SITA) (Carl Zeiss Meditec Inc., Dublin, Calif.).
The same pattern prevailed using Goldmann perimetry.

In the case of `Cc1cccc(C)c1NC(=O)C1CCCCN1C` (stereo not shown) [Mepivacaine, I-methyl-2′,6′-pipecoloxylidide], the “metabolism in the severely lesioned right mesial occipital cortex” value ([1]; on and off periods) is reported as “severe and constant hypometabolism”, the “metabolism in the intact left occipital and temporal cortex” value ([1]; on vs off periods, FIG. 6) is reported as “significant increase in metabolism” and the “functional connectivity of right-hemispheric calcarine region (control analysis)” value [2] is reported as “no significant differences between on and off periods”. For the same compound, the “functional connectivity of left calcarine cortex with bilateral frontoparietal regions” value ([2]; FIG. 4) was “increase in connectivity”, the “functional connectivity of left calcarine cortex with mesial and lateral regions (default-mode network)” value ([2]; FIG. 4) was “decrease in correlation” and the “intrinsic connectivity of bilateral lateral occipital cortex with the rest of the brain” value ([2]; FIG. 5) was “increased its average functional connectivity with the rest of the brain”. For the same compound, the “vision in the left hemifield (confrontation)” value ([3]; during on periods) was “dense hemianopia persisted”, the “vision in the right hemifield (confrontation)” value ([3]; during on periods) was “vision returned to normal in the right hemifield” and the “duration of transition from off to on periods (widening of spared vision to whole right hemifield)” value ([3]; patient description) was “over a matter of seconds”. For the same compound, the “duration of transition from on to off periods” value ([3]; patient description) was “about 1 minute”, the “visual ability of the patient” value ([3]; pursuant administration, single patient) was “improvement of visual ability” and the “general neurological examination (apart from visual status)” value [4] was “normal”. For the same compound, the “BORB TEST 1: Copying, score” value [5] was 9/9, the “BORB TEST 2: Length Match Task, score” value [5] was 26/30 and the “BORB TEST 3: Size Match Task, score” value [5] was 28/30. The “BORB TEST 4: Orientation Match Task, score” value [5] was 25/30, the “BORB TEST 5: Position of Gap Match Task, score” value [5] was 37/40 and the “BORB TEST 7: Minimal Feature View Test, score” value [5] was 25/25. The “BORB TEST 8: Foreshortened View Task, score” value [5] was 25/25, the “BORB TEST 9: Drawing from Memory, score” value [5] was 6/6 and the “BORB TEST 10: Object Decision Task, score” value [5] was 26/32. The “BORB TEST 11: Function Match Task, score” value [5] was 31/32, the “BORB TEST 12: Associative Match Task, score” value [5] was 29/30 and the “Benton's Judgment of Line Orientation, score” value [5] was 14/15. For the same compound, the “Block design test (WAIS-IV), score” value [5] was 53/66, the “Facial recognition test (Benton, 1963), score” value [5] was 38/54 and the “Facial recognition test, in words” value [5] was “mild deficit”. The “Hooper Test (Richardson and Marattoli, 1996), score” value [5] was 27/30, the “Matrix reasoning test (WAIS-IV), score” value [5] was 22/26 and the “OD 80 picture naming test (Deloche and Hannequin, 1996), score” value [5] was 80/80. The “all tests involving visual perception” value [5] was “normal”, the “Block design test (WAIS-IV), NS” value ([5]; NS) was 13 and the “Matrix reasoning test (WAIS-IV), NS” value ([5]; NS) was 14. For the same compound, the “BORB TEST 2: Length Match Task, z” value ([5]; z score) was 0.56, the “BORB TEST 3: Size Match Task, z” value ([5]; z score) was 0.29 and the “BORB TEST 4: Orientation Match Task, z” value ([5]; z score) was 0.08. For the same compound, the “BORB TEST 5: Position of Gap Match Task, z” value ([5]; z score) was 0.48, the “BORB TEST 7: Minimal Feature View Test, z” value ([5]; z score) was 0.85 and the “BORB TEST 8: Foreshortened View Task, z” value ([5]; z score) was 1.31. For the same compound, the “BORB TEST 10: Object Decision Task, z” value ([5]; z score) was 0.45, the “BORB TEST 11: Function Match Task, z” value ([5]; z score) was 0.45 and the “BORB TEST 12: Associative Match Task, z” value ([5]; z score) was 0.63. For the same compound, the “Hooper Test (Richardson and Marattoli, 1996), z” value ([5]; z score) was 1.30, the “vision in the left superior quadrant” value ([6]; on period / under Mepivacaine) was “recovered in a small paramedial island in the left superior quadrant; also recorded: extends to part of the left superior quadrant” and the “vision in the right hemifield (HVF)” value ([6]; on period, FIG. 2) was “vision returned to normal in the whole right hemifield, except for a small superior paracentral island”. For the same compound, the “island of right visual field corresponding to right occipital infarct” value ([6]; under Mepivacaine) was “not improved”.
